Experimental data from patent publication US20250313535A1, “ALPHA 4 BETA 7 INTEGRIN MODULATORS AND USES THEREOF” (DICE MOLECULES SV, INC., priority 2022, published 2025).

How the values were obtained:
[1] = target: α4β7 integrin (Homo sapiens (Human), UniProt P13612+P26010); experiment: Integrin Adhesion Assay: Protocol 4 (MAdCAM-coated plate, RPMI-8866 cells with stable LOF mutation of the ITGB1 gene); assay type: cell-based; details: Protocol 4; RPMI-8866 cells with LOF mutation of ITGB1, MAdCAM; read-out: Mean IC50 α4β7 KO
Chain of α4β7 integrin (P13612 34-1032): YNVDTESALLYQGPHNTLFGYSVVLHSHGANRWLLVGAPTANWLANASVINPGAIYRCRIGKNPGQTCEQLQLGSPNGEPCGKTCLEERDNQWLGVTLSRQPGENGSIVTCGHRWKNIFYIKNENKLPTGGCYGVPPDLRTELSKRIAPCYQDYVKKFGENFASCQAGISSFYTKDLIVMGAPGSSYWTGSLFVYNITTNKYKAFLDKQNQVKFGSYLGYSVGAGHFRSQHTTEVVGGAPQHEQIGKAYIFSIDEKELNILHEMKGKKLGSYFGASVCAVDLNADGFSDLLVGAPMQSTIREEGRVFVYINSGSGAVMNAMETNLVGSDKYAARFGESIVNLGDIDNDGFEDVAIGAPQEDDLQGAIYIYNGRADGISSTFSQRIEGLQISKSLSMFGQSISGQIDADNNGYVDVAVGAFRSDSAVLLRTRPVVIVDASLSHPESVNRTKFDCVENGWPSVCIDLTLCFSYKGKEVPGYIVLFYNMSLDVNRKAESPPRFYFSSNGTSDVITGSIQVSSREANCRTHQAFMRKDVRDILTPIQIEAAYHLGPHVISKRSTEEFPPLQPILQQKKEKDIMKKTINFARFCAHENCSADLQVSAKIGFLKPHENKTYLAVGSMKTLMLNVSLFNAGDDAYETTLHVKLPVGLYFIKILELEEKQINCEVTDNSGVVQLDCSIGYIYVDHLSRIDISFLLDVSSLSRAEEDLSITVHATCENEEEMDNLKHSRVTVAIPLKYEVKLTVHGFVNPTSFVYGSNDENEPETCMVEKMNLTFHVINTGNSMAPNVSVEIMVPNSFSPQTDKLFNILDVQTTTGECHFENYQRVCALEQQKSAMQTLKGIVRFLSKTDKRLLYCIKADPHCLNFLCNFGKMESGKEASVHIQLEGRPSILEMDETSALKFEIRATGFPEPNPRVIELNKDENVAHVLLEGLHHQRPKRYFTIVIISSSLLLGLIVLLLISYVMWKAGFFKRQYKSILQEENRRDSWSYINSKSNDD
Chain of α4β7 integrin (P26010 20-798): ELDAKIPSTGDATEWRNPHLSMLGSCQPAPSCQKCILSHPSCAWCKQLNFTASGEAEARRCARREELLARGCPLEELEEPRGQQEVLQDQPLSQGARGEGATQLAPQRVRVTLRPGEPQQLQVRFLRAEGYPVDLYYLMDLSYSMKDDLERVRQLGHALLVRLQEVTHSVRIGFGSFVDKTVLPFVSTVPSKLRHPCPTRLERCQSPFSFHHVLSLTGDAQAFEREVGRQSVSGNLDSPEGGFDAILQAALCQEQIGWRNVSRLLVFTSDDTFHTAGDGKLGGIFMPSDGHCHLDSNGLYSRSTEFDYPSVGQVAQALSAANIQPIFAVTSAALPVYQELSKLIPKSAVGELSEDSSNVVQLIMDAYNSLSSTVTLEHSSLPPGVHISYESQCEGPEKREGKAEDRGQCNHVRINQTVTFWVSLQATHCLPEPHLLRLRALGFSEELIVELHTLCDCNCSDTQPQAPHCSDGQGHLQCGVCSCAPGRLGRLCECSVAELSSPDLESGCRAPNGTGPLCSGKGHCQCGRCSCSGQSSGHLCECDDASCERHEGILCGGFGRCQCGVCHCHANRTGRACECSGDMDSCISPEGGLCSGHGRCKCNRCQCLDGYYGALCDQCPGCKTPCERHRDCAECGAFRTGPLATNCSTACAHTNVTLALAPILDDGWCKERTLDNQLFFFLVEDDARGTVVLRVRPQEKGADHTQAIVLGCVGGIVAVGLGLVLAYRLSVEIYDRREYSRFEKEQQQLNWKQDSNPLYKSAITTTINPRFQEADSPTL
Method in brief: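 RPMI-8866 cells with CRISPR/Cas9 knockout of ITGB1 (2×10^6/mL) were added to MAdCAM-coated wells with compound (1% DMSO) in HEPES/NaCl buffer with 1 mM MnCl2, 0.1 mM CaCl2 and 1% BSA, then incubated 1 h at 37 °C. After four washes, adherent cells were quantified by CellTiter-Glo luminescence. Percent inhibition versus DMSO and control compound was fitted to 4-parameter curves.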

[2] = target: α4β1 integrin (Homo sapiens (Human), UniProt P05556+P13612); experiment: Integrin Adhesion Assay: Protocol 5 (VCAM-coated plate, RPMI-8866 cells with stable LOF mutation of the ITGB7 gene); assay type: cell-based; details: Protocol 5; RPMI-8866 cells with LOF mutation of ITGB7, VCAM; read-out: Mean IC50 α4β1 KO
Chain of α4β1 integrin (P13612 34-1032): as the sequence (P13612 34-1032) above
Chain of α4β1 integrin (P05556 21-798): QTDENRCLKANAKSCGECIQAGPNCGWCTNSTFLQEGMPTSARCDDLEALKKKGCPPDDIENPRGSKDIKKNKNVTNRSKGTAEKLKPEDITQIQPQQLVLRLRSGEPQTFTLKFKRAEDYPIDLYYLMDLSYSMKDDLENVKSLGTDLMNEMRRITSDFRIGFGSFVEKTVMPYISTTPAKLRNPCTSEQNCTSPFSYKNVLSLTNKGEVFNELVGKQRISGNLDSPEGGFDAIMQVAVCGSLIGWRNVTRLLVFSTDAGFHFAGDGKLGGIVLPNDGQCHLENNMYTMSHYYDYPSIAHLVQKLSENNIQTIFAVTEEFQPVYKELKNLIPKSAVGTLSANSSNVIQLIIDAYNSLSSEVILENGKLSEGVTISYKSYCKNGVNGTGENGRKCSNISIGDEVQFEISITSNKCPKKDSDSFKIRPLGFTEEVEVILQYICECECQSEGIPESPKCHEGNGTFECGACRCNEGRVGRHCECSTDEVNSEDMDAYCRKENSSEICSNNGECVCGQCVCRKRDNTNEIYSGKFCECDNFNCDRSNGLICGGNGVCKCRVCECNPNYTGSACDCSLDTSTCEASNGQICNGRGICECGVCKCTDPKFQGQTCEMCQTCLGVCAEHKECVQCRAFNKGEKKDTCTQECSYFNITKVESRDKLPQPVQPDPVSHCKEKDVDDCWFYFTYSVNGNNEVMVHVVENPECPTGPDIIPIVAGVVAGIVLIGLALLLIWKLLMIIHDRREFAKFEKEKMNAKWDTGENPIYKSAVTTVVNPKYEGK
Method in brief: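 RPMI-8866 B cells with CRISPR/Cas9 ITGB7 knockout (clonal, verified by flow cytometry) adhered to VCAM-coated wells for 1 h at 37° C in HEPES/NaCl buffer with 1 mM MnCl2, 0.1 mM CaCl2, 1% BSA, 1% DMSO. Bound cells quantified by CellTiter-Glo luminescence after washing; % inhibition versus DMSO and control, 4-parameter fit.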

SMILES	IC50 [1] [nM]	IC50 [2] [nM]
COc1ccc(CN2CCN(C)C(C)(C)C2)c(OC)c1-c1cccc2c(C[C@H](NC(=O)C3(C(F)(F)F)CCN(CC(F)(F)F)CC3)C(=O)O)cccc12 [Compound 810]	< 10	100 to 1000
COc1ccc(CN2CC3CCCCC3C2)c(OC)c1-c1cccc2c(C[C@H](NC(=O)C3(C(F)(F)F)CCN(CC(F)(F)F)CC3)C(=O)O)cccc12 (stereo partly drawn) [Compound 811]	< 10	> 1000
COc1ccc(CN2CCCC(C)(C)CC2)c(OC)c1-c1cccc2c(C[C@H](NC(=O)C3(C(F)(F)F)CCN(CC(F)(F)F)CC3)C(=O)O)cccc12 [Compound 812]	10 to 100	> 1000
COc1ccc(CN2CCC3(CCCCC3)CC2)c(OC)c1-c1cccc2c(C[C@H](NC(=O)C3(C(F)(F)F)CCN(CC(F)(F)F)CC3)C(=O)O)cccc12 [Compound 813]	< 10	> 1000
COc1ccc(CN2CC(C(F)(F)F)C2)c(OC)c1-c1cccc2c(C[C@H](NC(=O)C3(C(F)(F)F)CCN(CC(F)(F)F)CC3)C(=O)O)cccc12 [Compound 814]	10 to 100	> 1000
COc1ccc(CN2CC(c3ccccc3)C2)c(OC)c1-c1cccc2c(C[C@H](NC(=O)C3(C(F)(F)F)CCN(CC(F)(F)F)CC3)C(=O)O)cccc12 [Compound 815]	10 to 100	> 1000
COc1ccc(CN2CCN(C3CCC3)CC2)c(OC)c1-c1cccc2c(C[C@H](NC(=O)C3(C(F)(F)F)CCN(CC(F)(F)F)CC3)C(=O)O)cccc12 [Compound 816]	< 10	100 to 1000
COc1ccc(CN2CC3C(C2)C3(C)C)c(OC)c1-c1cccc2c(C[C@H](NC(=O)C3(C(F)(F)F)CCN(CC(F)(F)F)CC3)C(=O)O)cccc12 (stereo partly drawn) [Compound 817]	< 10	100 to 1000
COc1ccc(CN2CCC(C(C)(C)C)CC2)c(OC)c1-c1cccc2c(C[C@H](NC(=O)C3(C(F)(F)F)CCN(CC(F)(F)F)CC3)C(=O)O)cccc12 [Compound 818]	< 10	> 1000
COc1ccc(CN2CCC(C)(C)CC2)c(C(F)(F)F)c1-c1cccc2c(C[C@H](NC(=O)C3(C(F)(F)F)CCN(CC(F)(F)F)CC3)C(=O)O)cccc12 [Compound 819]	< 10	100 to 1000
COc1ccc(CN2CCCC(F)C2)c(C(F)(F)F)c1-c1cccc2c(C[C@H](NC(=O)C3(C(F)(F)F)CCN(CC(F)(F)F)CC3)C(=O)O)cccc12 (stereo partly drawn) [Compound 820]	10 to 100	> 1000
COc1ccc(CN2CCC(F)CC2)c(C(F)(F)F)c1-c1cccc2c(C[C@H](NC(=O)C3(C(F)(F)F)CCN(CC(F)(F)F)CC3)C(=O)O)cccc12 [Compound 821]	10 to 100	> 1000
COc1ccc(CN2CCC(F)(F)CC2)c(C(F)(F)F)c1-c1cccc2c(C[C@H](NC(=O)C3(C(F)(F)F)CCN(CC(F)(F)F)CC3)C(=O)O)cccc12 [Compound 822]	100 to 1000	> 1000
COc1ccc(CN2CCC(F)(F)CC2)c(C(F)(F)F)c1-c1cccc2c(C[C@H](NC(=O)c3c(C)cccc3F)C(=O)O)cccc12 [Compound 823]	100 to 1000	> 1000
COc1cc(CN2CCCCC2)cc(C(F)(F)F)c1-c1cccc2c(C[C@H](NC(=O)C3(C(F)(F)F)CCN(CC(F)(F)F)CC3)C(=O)O)cccc12 [Compound 824]	< 10	> 1000
COc1ccc(CN2CCCC(F)(F)C2)c(OC)c1-c1cccc2c(C[C@H](NC(=O)C3(C(F)(F)F)CCN(CC(F)(F)F)CC3)C(=O)O)cccc12 [Compound 825]	10 to 100	> 1000
COc1cccc(CN2CCC(F)CC2)c1-c1cccc2c(C[C@H](NC(=O)C3(C(F)(F)F)CCN(CC(F)(F)F)CC3)C(=O)O)cccc12 [Compound 827]	10 to 100	> 1000
COc1cccc(CN2CCCC(F)C2)c1-c1cccc2c(C[C@H](NC(=O)C3(C(F)(F)F)CCN(CC(F)(F)F)CC3)C(=O)O)cccc12 (stereo partly drawn) [Compound 828]	10 to 100	> 1000
COc1cccc(CN2CCC(C)(C)CC2)c1-c1cccc2c(C[C@H](NC(=O)C3(C(F)(F)F)CCN(CC(F)(F)F)CC3)C(=O)O)cccc12 [Compound 829]	10 to 100	> 1000
COc1cc(C(F)(F)F)cc(CN2CCCCC2)c1-c1cccc2c(C[C@H](NC(=O)C3(C(F)(F)F)CCN(CC(F)(F)F)CC3)C(=O)O)cccc12 [Compound 830]	10 to 100	> 1000
COc1cc(CN2CCCCC2)ccc1-c1cccc2c(C[C@H](NC(=O)C3(C(F)(F)F)CCN(CC(F)(F)F)CC3)C(=O)O)cccc12 [Compound 831]	< 10	> 1000

SMILES	IC50 [1] [nM]	IC50 [2] [nM]
COc1cc(C(F)(F)F)c(CN2CCCCC2)cc1-c1cccc2c(C[C@H](NC(=O)C3(C(F)(F)F)CCN(CC(F)(F)F)CC3)C(=O)O)cccc12 [Compound 832]	10 to 100	> 1000
Cn1c(=O)c(-c2cccc3c(C[C@H](NC(=O)C4(C(F)(F)F)CCN(CC(F)(F)F)CC4)C(=O)O)cccc23)c(C(F)(F)F)c2cc(CN3CCC(F)CC3)ccc21 [Compound 833]	< 10	100 to 1000
Cn1c(=O)c(-c2cccc3c(C[C@H](NC(=O)C4(C(F)(F)F)CCN(CC(F)F)CC4)C(=O)O)cccc23)c(C(F)(F)F)c2cc(CN3CCC(F)CC3)ccc21 [Compound 834]	< 10	10 to 100
Cn1c(=O)c(-c2cccc3c(C[C@H](NC(=O)C4(C(F)(F)F)CCN(CC(F)(F)F)CC4)C(=O)O)cccc23)c(C(F)(F)F)c2cc(CN3CCC(F)(F)CC3)ccc21 [Compound 835]	10 to 100	100 to 1000
Cn1c(=O)c(-c2cccc3c(C[C@H](NC(=O)C4(C(F)(F)F)CCN(CC(F)F)CC4)C(=O)O)cccc23)c(C(F)(F)F)c2cc(CN3CCC(F)(F)CC3)ccc21 [Compound 836]	10 to 100	10 to 100
Cn1c(=O)c(-c2cccc3c(C[C@H](NC(=O)C4(C(F)(F)F)CCN(CC(F)(F)F)CC4)C(=O)O)cccc23)c(C(F)(F)F)c2cc(CN3CCC(c4ccccc4)CC3)ccc21 [Compound 837]	10 to 100	100 to 1000
Cn1c(=O)c(-c2cccc3c(C[C@H](NC(=O)C4(C(F)(F)F)CCN(CC(F)F)CC4)C(=O)O)cccc23)c(C(F)(F)F)c2cc(CN3CCC(c4ccccc4)CC3)ccc21 [Compound 838]	< 10	10 to 100
CC1CCN(Cc2ccc3c(c2)c(C(F)(F)F)c(-c2cccc4c(C[C@H](NC(=O)C5(C(F)(F)F)CCN(CC(F)(F)F)CC5)C(=O)O)cccc24)c(=O)n3C)CCC1(F)F (stereo partly drawn) [Compound 839]	10 to 100	100 to 1000
CC1CCN(Cc2ccc3c(c2)c(C(F)(F)F)c(-c2cccc4c(C[C@H](NC(=O)C5(C(F)(F)F)CCN(CC(F)F)CC5)C(=O)O)cccc24)c(=O)n3C)CCC1(F)F (stereo partly drawn) [Compound 840]	< 10	10 to 100
COc1ccc(CN2CCC[C@@H](F)C2)c(OC)c1-c1cccc2c(C[C@H](NC(=O)C3(C(F)(F)F)CCN(CC(F)(F)F)CC3)C(=O)O)cccc12 [Compound 841]	< 10	> 1000
COc1ccc(CN2CCC[C@H](F)C2)c(OC)c1-c1cccc2c(C[C@H](NC(=O)C3(C(F)(F)F)CCN(CC(F)(F)F)CC3)C(=O)O)cccc12 [Compound 842]	< 10	100 to 1000
COc1cnc(CN2CCC(C)C(F)(F)CC2)cc1-c1cccc2c(C[C@H](NC(=O)C3(C(F)(F)F)CCN(CC(F)(F)F)CC3)C(=O)O)cccc12 (stereo partly drawn) [Compound 843]	< 10	> 1000
COc1ccc(CN2CCC(C(F)(F)F)CC2)c(OC)c1-c1cccc2c(C[C@H](NC(=O)C3(C(F)(F)F)CCN(CC(F)(F)F)CC3)C(=O)O)cccc12 [Compound 844]	< 10	100 to 1000
COc1ccc(CN2CC3CCC(C2)O3)c(OC)c1-c1cccc2c(C[C@H](NC(=O)C3(C(F)(F)F)CCN(CC(F)(F)F)CC3)C(=O)O)cccc12 [Compound 845]	10 to 100	> 1000
Cn1c(=O)c(-c2cccc3c(C[C@H](NC(=O)C4(C(F)(F)F)CCN(CC(F)(F)F)CC4)C(=O)O)cccc23)c(C(F)(F)F)c2ccc(CN3CCC(F)(F)CC3)cc21 [Compound 846]	10 to 100	> 1000
COc1cc(CN2CCC(F)(F)CC2)cc(C(F)(F)F)c1-c1cccc2c(C[C@H](NC(=O)C3(C(F)(F)F)CCN(CC(F)(F)F)CC3)C(=O)O)cccc12 [Compound 847]	10 to 100	> 1000
COc1cc(CN2CCC[C@H](F)C2)cc(C(F)(F)F)c1-c1cccc2c(C[C@H](NC(=O)C3(C(F)(F)F)CCN(CC(F)(F)F)CC3)C(=O)O)cccc12 [Compound 848]	10 to 100	> 1000
COc1cc(CN2CCC[C@@H](F)C2)cc(C(F)(F)F)c1-c1cccc2c(C[C@H](NC(=O)C3(C(F)(F)F)CCN(CC(F)(F)F)CC3)C(=O)O)cccc12 [Compound 849]	10 to 100	> 1000
COc1ccc(CCN2CCC(F)(F)CC2)c(C(F)(F)F)c1-c1cccc2c(C[C@H](NC(=O)C3(C(F)(F)F)CCN(CC(F)(F)F)CC3)C(=O)O)cccc12 [Compound 850]	10 to 100	100 to 1000
COc1cc(CN2CCC(F)CC2)cc(OC)c1-c1cccc2c(C[C@H](NC(=O)C3(C(F)(F)F)CCN(CC(F)(F)F)CC3)C(=O)O)cccc12 [Compound 851]	< 10	100 to 1000
O=C(O)[C@H](Cc1cccc2c(-c3ncc(CN4CCC[C@H](F)C4)c4ccccc34)cccc12)NC(=O)C1(C(F)(F)F)CCN(CC(F)(F)F)CC1 [Compound 852]	10 to 100	> 1000
